Assay results as given in patent publication US20220363665A1, “QUINOLINE COMPOUNDS FOR THE TREATMENT OF AUTOIMMUNE DISEASE” (Hoffmann-La Roche Inc., priority 2019, published 2022).

These molecules were tested against T1, human TLR7 (Homo sapiens, UniProt Q9NYK1) (assay: HEK293-Blue-hTLR-7 cells assay (SEAP reporter, R848 stimulation)). Conditions: HEK293-Blue-hTLR7 cells, R848, 20 hrs.
T1 construct: host or cells: HEK293 (HEK-Blue hTLR7)
T1 sequence (Q9NYK1 27-1049): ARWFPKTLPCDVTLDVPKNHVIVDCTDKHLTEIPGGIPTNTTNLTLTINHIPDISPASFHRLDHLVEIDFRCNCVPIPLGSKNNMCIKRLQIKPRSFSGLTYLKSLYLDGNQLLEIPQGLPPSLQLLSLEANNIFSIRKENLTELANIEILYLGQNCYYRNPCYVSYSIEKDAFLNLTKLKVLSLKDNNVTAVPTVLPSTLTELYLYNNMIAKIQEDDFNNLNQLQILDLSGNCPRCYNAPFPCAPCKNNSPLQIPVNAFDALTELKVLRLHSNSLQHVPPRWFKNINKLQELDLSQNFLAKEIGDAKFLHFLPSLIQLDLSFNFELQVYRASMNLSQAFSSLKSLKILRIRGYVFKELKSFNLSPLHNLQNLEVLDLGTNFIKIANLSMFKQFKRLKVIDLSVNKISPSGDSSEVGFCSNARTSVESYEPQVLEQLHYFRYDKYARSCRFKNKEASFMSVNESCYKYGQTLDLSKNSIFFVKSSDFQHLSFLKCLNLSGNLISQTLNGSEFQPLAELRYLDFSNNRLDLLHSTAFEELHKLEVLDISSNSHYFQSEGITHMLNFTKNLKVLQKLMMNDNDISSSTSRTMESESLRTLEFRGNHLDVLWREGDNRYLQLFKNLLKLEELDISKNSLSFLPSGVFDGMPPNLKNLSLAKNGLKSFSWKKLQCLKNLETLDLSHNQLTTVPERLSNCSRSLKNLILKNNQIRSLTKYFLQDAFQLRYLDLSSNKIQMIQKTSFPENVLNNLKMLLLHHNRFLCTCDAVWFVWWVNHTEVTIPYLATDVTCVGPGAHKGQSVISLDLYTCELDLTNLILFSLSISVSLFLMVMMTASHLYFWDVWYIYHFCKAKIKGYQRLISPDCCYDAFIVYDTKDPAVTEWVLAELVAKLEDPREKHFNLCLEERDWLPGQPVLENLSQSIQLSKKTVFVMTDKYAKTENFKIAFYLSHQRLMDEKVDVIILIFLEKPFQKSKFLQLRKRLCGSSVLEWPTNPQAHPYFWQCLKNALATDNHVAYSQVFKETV
Assay type: cell-based
Method: The following tests were carried out in order to determine the activity of the compounds of formula (I) in HEK293-Blue-hTLR-7/8/9 cells assay.
HEK293-Blue-hTLR-7 Cells Assay:
A stable HEK293-Blue-hTLR-7 cell line was purchased from InvivoGen (Cat. #: hkb-htlr7, San Diego, Calif. USA). These cells were originally designed for studying the stimulation of human TLR7 by monitoring the activation of NF-κB. A SEAP (secreted embryonic alkaline phosphatase) reporter gene was placed under the control of the IFN-β minimal promoter fused to five NF-κB and AP-1-binding sites. The SEAP was induced by activating NF-κB and AP-1 via stimulating HEK-Blue hTLR7 cells with TLR7 ligands. Therefore the reporter expression was declined by TLR7 antagonist under the stimulation of a ligand, such as R848 (Resiquimod), for incubation of 20 hrs. The cell culture supernatant SEAP reporter activity was determined using QUANTI-Blue™ kit (Cat. #: rep-qbl, Invivogen, San Diego, Calif., USA) at a wavelength of 640 nm, a detection medium that turns purple or blue in the presence of alkaline phosphatase.
HEK293-Blue-hTLR7 cells were incubated at a density of 250,000˜450,000 cells/mL in a volume of 170 μL in a 96-well plate in Dulbecco's Modified Eagle's medium (DMEM) containing 4.5 g/L glucose, 50 U/mL penicillin, […], […], 2 mM L-glutamine, 10% (v/v) heat-inactivated fetal bovine serum with addition of 20 μL A test compound in a serial dilution in the presence of final DMSO at 1% and 10 μL of 20 uM R848 in above DMEM, perform incubation under 37° C. in a CO2 incubator for 20 hrs. Then 20 μL of the supernatant from each well was incubated with 180 μQuanti-blue substrate solution at 37° C. for 2 hrs and the absorbance was read at 620˜655 nm using a spectrophotometer. The signalling pathway that TLR7 activation leads to downstream NF-κB activation has been widely accepted, and therefore similar reporter assay was modified for evaluating TLR7 antagonist.
With `C[C@@H]1CN(c2ccc([N+](=O)[O-])c3ncccc23)C[C@H](C(=O)NC2CCN(C)CC2)O1` [Example 20, (2R,6R)-6-methyl-N-(1-methyl-4-piperidyl)-4-(8-nitro-5-quinolyl)morpholine-2-carboxamide] the IC50 was 0.002 µM.
`CC(NC(=O)[C@H]1CN(c2ccc(C(F)(F)F)c3ncccc23)C[C@@H](C)O1)C1CN(C)CCO1` (single isomer, unassigned) [Example 35A] gave an IC50 of 0.028 µM.
For `C[C@@H]1CN(c2ccc(C(F)(F)F)c3ncccc23)C[C@H](C(=O)NC2CC3CNCC32)O1` (single isomer, unassigned) [Example 49A], the IC50 was 0.025 µM.
`Cc1ccc(N2C[C@@H](C)C[C@@H](N)C2)c2cccnc12` [Example 15, (3R,5S)-5-methyl-1-(8-methyl-5-quinolyl)piperidin-3-amine] gave an IC50 of 0.03 µM.
With `C[C@@H]1CN(c2ccc(C(F)(F)F)c3ncccc23)C[C@H](C(=O)NC2C3CCCC2CNC3)O1` (stereo partly drawn) [Example 45, (2R,6R)-N-(3-azabicyclo[3.3.1]nonan-9-yl)-6-methyl-4-[8-(trifluoromethyl)-5-quinolyl]morpholine-2-carboxamide] the IC50 was < 0.003 µM.
`CC(NC(=O)[C@H]1CN(c2ccc(C(F)(F)F)c3ncccc23)C[C@@H](C)O1)C1CN(C)CCO1` (single isomer, unassigned) [Example 35B] gave an IC50 of 0.065 µM.
`C[C@@H]1CN(c2ccc(C(F)(F)F)c3ncccc23)C[C@H](C(=O)NC2C3CNCC2COC3)O1` (single isomer, unassigned) [Example 46B] gave an IC50 of 0.021 µM.
With `C[C@@H]1CN(c2ccc(C(F)(F)F)c3ncccc23)C[C@H](C(=O)NC2CC3CCC(C2)N3)O1` (single isomer, unassigned) [Example 47A] the IC50 was < 0.003 µM.
Work on `C[C@@H]1CN(c2ccc(C(F)(F)F)c3ncccc23)C[C@H](C(=O)N[C@@H]2CNC[C@@H]2F)O1` (single isomer, unassigned) [Example 2A] yielded an IC50 of 0.041 µM.
`C[C@@H]1CN(c2ccc(C(F)(F)F)c3ncccc23)C[C@H](C(=O)NC2CNCCOC2)O1` (stereo partly drawn) [Example 14, (2R,6R)-6-methyl-N-(1,4-oxazepan-6-yl)-4-[8-(trifluoromethyl)-5-quinolyl]morpholine-2-carboxamide] gave an IC50 of 0.037 µM.
With `C[C@@H]1CN(c2ccc(Cl)c3ncccc23)C[C@H](C(=O)NCC2CN(C)CCO2)O1` (stereo partly drawn) [Example 26, (2R,6R)-4-(8-chloro-5-quinolyl)-6-methyl-N-[(4-methylmorpholin-2-yl)methyl]morpholine-2-carboxamide] the IC50 was 0.023 µM.
Work on `C[C@@H]1CN(c2ccc(C(F)(F)F)c3ncccc23)C[C@H](C(=O)NCCN2CCOCC2)O1` [Example 13, (2R,6R)-6-methyl-N-(2-morpholinoethyl)-4-[8-(trifluoromethyl)-5-quinolyl]morpholine-2-carboxamide] yielded an IC50 of 0.29 µM.
Work on `C[C@@H]1CN(c2ccc(C(F)(F)F)c3ncccc23)C[C@H](C(=O)NC2CNCC(F)(F)C2)O1` (stereo partly drawn) [Example 28, (2R,6R)-N-(5,5-difluoro-3-piperidyl)-6-methyl-4-[8-(trifluoromethyl)-5-quinolyl]morpholine-2-carboxamide] yielded an IC50 of 0.2 µM.
In the case of `Cc1ccc(N2C[C@@H](C)O[C@@H](C(=O)NC3CCN(C)CC3)C2)c2cccnc12` [Example 16, (2R,6R)-6-methyl-N-(1-methyl-4-piperidyl)-4-(8-methyl-5-quinolyl)morpholine-2-carboxamide], the IC50 is reported as 0.074 µM.
`C[C@@H]1CN(c2ccc(C(F)(F)F)c3ncccc23)C[C@H](C(=O)NC[C@@H]2CC(F)(F)CN2)O1` [Example 30] gave an IC50 of 0.37 µM.
`C[C@@H]1CN(c2ccc(C(F)(F)F)c3ncccc23)C[C@H](C(=O)NCC2CNCCO2)O1` (stereo partly drawn) [Example 48, (2R,6R)-6-methyl-N-(morpholin-2-ylmethyl)-4-[8-(trifluoromethyl)-5-quinolyl]morpholine-2-carboxamide] gave an IC50 of 0.004 µM.
`C[C@@H]1CN(c2ccc(C(F)(F)F)c3ncccc23)C[C@H](C(=O)N2CCC3(CCNC3)C2)O1` (stereo partly drawn) [Example 36] gave an IC50 of 0.13 µM.
`C[C@@H]1CN(c2ccc(C(F)(F)F)c3ncccc23)C[C@H](C(=O)N[C@H]2CNC[C@H]2F)O1` (single isomer, unassigned) [Example 2B] was tested, and the IC50 was 0.015 µM.
Work on `C[C@@H]1CN(c2ccc([N+](=O)[O-])c3ncccc23)C[C@H](C(=O)N[C@@H]2CNC[C@@H]2F)O1` [Example 19, cis-(2R,6R)-N-[41-fluoropyrrolidin-3-yl]-6-methyl-4-(8-nitro-5-quinolyl)morpholine-2-carboxamide] yielded an IC50 of 0.014 µM.
Molecule `C[C@@H]1CN(c2ccc(C(F)(F)F)c3ncccc23)C[C@H](C(=O)N2CCC(N)CC2)O1` [Example 12, (4-amino-1-piperidyl)-[(2R,6R)-6-methyl-4-[8-(trifluoromethyl)-5-quinolyl]morpholin-2-yl]methanone] has an IC50 of 0.15 µM.
`C[C@@H]1CN(c2ccc(C(F)(F)F)c3ncccc23)C[C@H](C(=O)NC2CC3CNCC32)O1` (single isomer, unassigned) [Example 49C] was tested, and the IC50 was 0.008 µM.
Molecule `C[C@@H]1CN(c2ccc(C(F)(F)F)c3ncccc23)C[C@H](C(=O)NC2CC3CCCC(C2)N3)O1` (single isomer, unassigned) [Example 34B] has an IC50 of 0.007 µM.
Molecule `C[C@@H]1CN(c2ccc(I)c3ncccc23)C[C@H](C(=O)NCC2CN(C)CCO2)O1` (stereo partly drawn) [Example 39, (2R,6R)-4-(8-iodo-5-quinolyl)-6-methyl-N-[(4-methylmorpholin-2-yl)methyl]morpholine-2-carboxamide] has an IC50 of 0.007 µM.
`C[C@@H]1CN(c2ccc(C(F)(F)F)c3ncccc23)C[C@H](C(=O)NC2C[C@H]3C[C@@H]2CN3)O1` (stereo partly drawn) [Example 44] showed an IC50 of 0.018 µM.
`C#Cc1ccc(N2C[C@@H](C)O[C@@H](C(=O)NC3CCN(C)CC3)C2)c2cccnc12` [Example 43, (2R,6R)-4-(8-ethynyl-5-quinolyl)-6-methyl-N-(1-methyl-4-piperidyl)morpholine-2-carboxamide] was tested, and the IC50 was 0.01 µM.
For `C[C@@H]1CN(c2ccc(C(F)(F)F)c3ncccc23)C[C@H](C(=O)NC2CC3CNCC(C3)C2)O1` (stereo partly drawn) [Example 37, (2R,6R)-N-(3-azabicyclo[3.3.1]nonan-7-yl)-6-methyl-4-[8-(trifluoromethyl)-5-quinolyl]morpholine-2-carboxamide], the IC50 was 0.002 µM.
In the case of `C[C@@H]1CN(c2ccc(C(F)(F)F)c3ncccc23)C[C@H](C(=O)NCC(C)(C)N)O1` [Example 6, (2R,6R)-N-(2-amino-2-methyl-propyl)-6-methyl-4-[8-(trifluoromethyl)-5-quinolyl]morpholine-2-carboxamide], the IC50 is reported as 0.031 µM.
For `C[C@@H]1CN(c2ccc(C(F)(F)F)c3ncccc23)C[C@H](C(=O)NC2CC3CCC(C2)N3)O1` (single isomer, unassigned) [Example 47B], the IC50 was < 0.003 µM.
`C[C@@H]1CN(c2ccc(Cl)c3ncccc23)C[C@H](C(=O)NC2CCCNCC2)O1` (stereo partly drawn) [Example 25, (2R,6R)-N-(azepan-4-yl)-4-(8-chloro-5-quinolyl)-6-methyl-morpholine-2-carboxamide] was tested, and the IC50 was 0.012 µM.
Molecule `C[C@H]1C[C@@H](N)CN(c2ccc(C(F)(F)F)c3ncccc23)C1` [Example 1, (3R,5S)-5-methyl-1-[8-(trifluoromethyl)-5-quinolyl]piperidin-3-amine] has an IC50 of 0.005 µM.
